The target of assay [1] is T1, GPR40 (Homo sapiens, UniProt O14842). As to the kind of experiment: Inositol phosphate accumulation assay (A9_GPR40 cells). In kind it is cell-based. The arrangement: expressed in transfected cells; host or cells: CHO cells stably transfected with GPR40 and aequorin. Particulars: inositol phosphate assay, A9_GPR40 cells, 1 hour; read-out: IP3 EC50. On the procedure: Briefly, the Aequorin assays were performed on doubly stable CHO cells expressing GPR40 and Aequorin DNA. […] The luminescence was recorded over a period of 20 seconds with a Microlumat luminometer (Berthold). […] The inositol phosphate assay was performed on an A9 cell line stably transfected with GPR40 (A9_GPR40). The cells were incubated with different concentrations of compounds and [^3H] inositol accumulation was measured after 1 hour.
T1 sequence (O14842 whole entry): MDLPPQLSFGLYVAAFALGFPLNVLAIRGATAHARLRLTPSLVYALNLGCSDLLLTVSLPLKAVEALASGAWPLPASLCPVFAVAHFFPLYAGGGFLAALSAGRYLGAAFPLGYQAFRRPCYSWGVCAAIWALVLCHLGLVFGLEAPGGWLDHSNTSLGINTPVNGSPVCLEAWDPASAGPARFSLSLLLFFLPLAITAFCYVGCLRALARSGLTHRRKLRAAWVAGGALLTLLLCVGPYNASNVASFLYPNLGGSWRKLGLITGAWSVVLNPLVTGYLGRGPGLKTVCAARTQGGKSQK
An A9 cell line stably transfected with GPR40 (A9_GPR40) was used in IP accumulation assays. A9_GPR40 cells were plated in 96-well plates containing 20,000 cells/well in DMEM containing 10% FBS. After the cells attached to the well surface, the media was replaced with inositol free DMEM containing 10% dialyzed FBS and 1 μCi, mL ^3H-inositol and incubated for 16 hours. Compounds were diluted in HBSS/10 mM LiCl containing a desired amount of HSA and added directly to cells. Following 1 hour incubation at 37° C., the media was replaced with 100 μL of 20 mM formic acid to quench the reaction. 50 μL of the extract was then added to 100 μL of SPA beads, incubated overnight, and measured on a TopCount the following day.

The target of assay [2] is T1, GPR40. As to the kind of experiment: Cell-based aequorin assay (CHO cells stably expressing GPR40 and aequorin). Further details: expressed in transfected cells; host or cells: CHO cells stably transfected with GPR40 and aequorin. Particulars: activation of human GPR40, CHO cells, 0.01% HSA. The essentials: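 CHO cells stably co-expressing GPR40 and aequorin, loaded with coelenterazine (1 ug/mL, 2 h, room temperature) in H/HBSS with 20 mM Hepes and 0.01% fatty acid-free HSA. Serially diluted compounds added; luminescence recorded over 20 s. EC50 from dose-response of maximum relative light units.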

The values that follow come from patent US8030354B2, “Substituted biphenyl GPR40 modulators” (Amgen Inc., priority 2007, dated 2011).

Bounds are passed on as bounds.

Regarding `CCCCOc1cc(COc2cccc([C@H](C)CC(=O)O)c2)ccc1-c1cc(OC)ccc1F` (single isomer, unassigned) [Example 5, (3R)-3-(3-(((2Butyloxy)-2′-fluoro-5′-(methyloxy)-1,1′-biphenyl-4-yl)methyl)oxy)phenyl)butanoic acid or (3S)-3-(3-(((2-(butyloxy)-2′-fluoro-5′-(methyloxy)-1,1′-biphenyl-4-yl)methyl)oxy)phenyl)butanoic acid], the half-maximal effective concentration (EC50) on GPR40 [1] and on GPR40 [2] was 100 to 1000 nM throughout.

`COc1ccc(F)c(-c2ccc(COc3cccc([C@@H](CC(=O)O)C(F)(F)F)c3)cc2C(C)(C)C)c1` (single isomer, unassigned) [Example 6, (3R)-3-(3-(((2-(1,1-Dimethylethyl)-2′-fluoro-5′-(methyloxy)-1,1′-biphenyl-4-yl)methyl)oxy)phenyl)-4,4,4-trifluorobutanoic acid or (3S)-3-(3-(((2-(1,1-dimethylethyl)-2′-fluoro-5′-(methyloxy)-1,1′-biphenyl-4-yl)methyl)oxy)phenyl)-4,4,4-trifluorobutanoic acid]: the half-maximal effective concentration (EC50) (as a rule, the concentration giving half of the maximal effect) is greater than 1000 nM at GPR40 [1] and 1000 to 10000 nM on GPR40 [2]. In the same order, the values of `CCCCOc1cc(COc2cccc([C@@H](CC(=O)O)C(F)(F)F)c2)ccc1-c1cc(OC)ccc1F` (single isomer, unassigned) [Example 7, (3R)-3-(3-(((2-(Butyloxy)-2′-fluoro-5′-(methyloxy)-1,1′-biphenyl-4-yl)methyl)oxy)phenyl)-4,4,4-trifluorobutanoic acid or (3S)-3-(3-(((2-(butyloxy)-2′-fluoro-5′-(methyloxy)-1,1′-biphenyl-4-yl)methyl)oxy)phenyl)-4,4,4-trifluorobutanoic acid] are 1000 to 10000 nM and 1000 to 10000 nM.

Regarding `COc1ccc(F)c(-c2ccc(COc3cccc([C@@H](CC(=O)O)C4CC4)c3)cc2C(C)(C)C)c1` (single isomer, unassigned) [Example 8, (3S)-3-Cyclopropyl-3-(3-(((2-(1,1-dimethylethyl)-2′-fluoro-5′-(methyloxy)-1,1′-biphenyl-4-yl)methyl)oxy)phenyl)propanoic acid or (3R)-3-cyclopropyl-3-(3-(((2-(1,1-dimethylethyl)-2′-fluoro-5′-(methyloxy)-1,1′-biphenyl-4-yl)methyl)oxy)phenyl)propanoic acid], the concentration giving a half-maximal response (EC50) on GPR40 [1] and at GPR40 [2] was 100 to 1000 nM throughout. Take `COc1cccc(-c2ccc(COc3cccc([C@@H](CC(=O)O)C4CC4)c3)cc2C(C)(C)C)c1` (single isomer, unassigned) [Example 12, (3S)-3-Cyclopropyl-3-(3-(((2-(1,1-dimethylethyl)-3′-(methyloxy)-1,1′-biphenyl-4-yl)methyl)oxy)phenyl)propanoic acid or (3R)-3-cyclopropyl-3-(3-(((2-(1,1-dimethylethyl)-3′-(methyloxy)-1,1′-biphenyl-4-yl)methyl)oxy)phenyl)propanoic acid]: the half-maximal effective concentration (EC50) on GPR40 [1] and on GPR40 [2] was 100 to 1000 nM throughout. With `CC[C@H](CC(=O)O)c1cccc(OCc2ccc(-c3cc(OC)ccc3F)c(C(C)(C)C)c2)c1` (single isomer, unassigned) [Example 17, (3R)-3-(3-(((2-(1,1-Dimethylethyl)-2′-fluoro-5′-(methyloxy)-1,1′-biphenyl-4-yl)methyl)oxy)phenyl)pentanoic acid or (3S)-3-(3-(((2-(1,1-dimethylethyl)-2′-fluoro-5′-(methyloxy)-1,1′-biphenyl-4-yl)methyl)oxy)phenyl)pentanoic acid], the EC50 on GPR40 [1] and on GPR40 [2] was 100 to 1000 nM throughout.

On to `CCCCOc1cc(COc2cccc([C@H](CC)CC(=O)O)c2)ccc1-c1cc(OC)ccc1F` (single isomer, unassigned) [Example 18, (3R)-3-(3-(((2-(Butyloxy)-2′-fluoro-5′-(methyloxy)-1,1′-biphenyl-4-yl)methyl)oxy)phenyl)pentanoic acid or (3S)-3-(3-(((2-(butyloxy)-2′-fluoro-5′-(methyloxy)-1,1′-biphenyl-4-yl)methyl)oxy)phenyl)pentanoic acid], for which the EC50 at GPR40 [1] and at GPR40 [2] was 100 to 1000 nM in each case. Compound `CCC(CC(=O)O)c1cc(F)cc(OCc2ccc(-c3cc(OC)ccc3F)c(C3CCCC3(C)C)c2)c1F` (single isomer, unassigned) [Example 101.2] returned an EC50 on GPR40 [2] of 100 to 1000 nM. On GPR40 [2], `COC[C@H](CC(=O)O)c1cccc(OCc2ccc(-c3cc(OC)ccc3F)c(C(C)(C)C)c2)c1` (single isomer, unassigned) [Example 102, (3R)-3-(3-(((2-(1,1-Dimethylethyl)-2′-fluoro-5′-(methyloxy)-1,1′-biphenyl-4-yl)methyl)oxy)phenyl)-4-(methyloxy)butanoic acid or (3S)-3-(3-(((2-(1,1-dimethylethyl)-2′-fluoro-5′-(methyloxy)-1,1′-biphenyl-4-yl)methyl)oxy)phenyl)-4-(methyloxy)butanoic acid] returned an EC50 of 100 to 1000 nM. `COc1cccc(-c2ccc(COc3cccc(CCC(=O)O)c3)cc2C)c1` [Example 1, 3-(3-(((2-Methyl-3′-(methyloxy)-1,1′-biphenyl-4-yl)methyl)oxy)phenyl)propanoic acid] displayed a concentration for a half-maximal effect (EC50) on GPR40 [2] of 1000 to 10000 nM. On the same count and under the same terms, next, `COc1ccc(F)c(-c2ccc(COc3cccc(CCC(=O)O)c3)cc2C)c1` [Example 2, 3-(3-(((2′-Fluoro-2-methyl-5′-(methyloxy)-1,1′-biphenyl-4-yl)methyl)oxy)phenyl)propanoic acid]: 100 to 1000 nM; `CCCCOc1ccc(OC)cc1-c1ccc(COc2cccc(CCC(=O)O)c2)cc1C` [Example 4, 3-(3-(((2′-(Butyloxy)-2-methyl-5′-(methyloxy)-1,1′-biphenyl-4-yl)methyl)oxy)phenyl)propanoic acid]: 1000 to 10000 nM; `CCCCOc1cc(COc2cccc(CCC(=O)O)c2)ccc1-c1cc(OC)ccc1F` [Example 13, 3-(3-(((2-(Butyloxy)-2′-fluoro-5′-(methyloxy)-1,1′-biphenyl-4-yl)methyl)oxy)phenyl)propanoic acid]: 1000 to 10000 nM. `COc1cccc(-c2ccc(COc3cccc(CCC(=O)O)c3)cc2C(C)(C)C)c1` [Example 40, 3-(3-(((2-(1,1-Dimethylethyl)-3′-(methyloxy)-1,1′-biphenyl-4-yl)methyl)oxy)phenyl)propanoic acid] yielded an EC50 on GPR40 [2] of 100 to 1000 nM. `CCOc1cccc(-c2ccc(COc3cccc(CCC(=O)O)c3)cc2C(C)(C)C)c1` [Example 41, 3-(3-(((2-(1,1-Dimethylethyl)-3′-(ethyloxy)-1,1′-biphenyl-4-yl)methyl)oxy)phenyl)propanoic acid] returned an EC50 on GPR40 [2] of 1000 to 10000 nM. At GPR40 [2], `COc1ccc(F)c(-c2ccc(COc3cccc(CCC(=O)O)c3)cc2C2CCCC2(C)C)c1` (stereo not shown) [Example 61.1, 3-(3-(((2-(2,2-Dimethylcyclopentyl)-2′-fluoro-5′-(methyloxy)-1,1′-biphenyl-4-yl)methyl)oxy)phenyl)propanoic acid] came in with an EC50 of 100 to 1000 nM. For the compound `CSc1cccc(-c2ccc(COc3cccc(CCC(=O)O)c3)cc2C(C)(C)C)c1` [Example 61.4, 3-(3-(((2-(1,1-Dimethylethyl)-3′-(methylsulfanyl)-1,1′-biphenyl-4-yl)methyl)oxy)phenyl)propanoic acid], the EC50 at GPR40 [2] was 1000 to 10000 nM. At GPR40 [2], `COc1ccc(F)c(-c2ccc(COc3cccc([C@@H](CC(=O)O)c4ccon4)c3)cc2C2=CCCC2(C)C)c1` [Example 94.1, (3R)-3-(3-(((2-(5,5-Dimethyl-1-cyclopenten-1-yl)-2′-fluoro-5′-(methyloxy)-1,1′-biphenyl-4-yl)methyl)oxy)phenyl)-3-(3-isoxazolyl)propanoic acid] showed an EC50 of 1000 to 10000 nM.

On GPR40 [2], `COc1ccc(F)c(-c2ccc(COc3cccc([C@@H](CC(=O)O)c4ccon4)c3)cc2C(C)(C)C)c1` [Example 94.2, (3R)-3-(3-(((2-(1,1-Dimethylethyl)-2′-fluoro-5′-(methyloxy)-1,1′-biphenyl-4-yl)methyl)oxy)phenyl)-3-(3-isoxazolyl)propanoic acid] registered an EC50 of 1000 to 10000 nM. On to `COc1ccc(F)c(-c2ccc(COc3cncc(CCC(=O)O)c3)cc2C(C)(C)C)c1` [Example 96, 3-(5-(((2-(1,1-Dimethylethyl)-2′-fluoro-5′-(methyloxy)-1,1′-biphenyl-4-yl)methyl)oxy)-3-pyridinyl)propanoic acid], for which the EC50 at GPR40 [2] lay in the range of 1000 to 10000 nM. The same measure, in the same setting: next, `COc1ccc(F)c(-c2ccc(COc3cccc(C4(CC(=O)O)CCCCC4)c3)cc2C(C)(C)C)c1` [Example 105.2, {1-[3-(2-tert-Butyl-2′-fluoro-5′-methoxy-biphenyl-4-ylmethoxy)-phenyl]-cyclohexyl}-acetic acid]: 1000 to 10000 nM.
